Patent US8614327B2 (Vertex Pharmaceuticals Incorporated, priority 2004, dated 2013)

Target: T1, ΔF508-CFTR (Homo sapiens, UniProt P13569, DEL508-508)
T1 construct: expressed in transfected cells
Assay: Membrane potential optical (FRET/VIPR) assay, identification of potentiator compounds
Type: cell-based
Settings: Table 3, assay not given; for % Activity: relative efficacy
Summary of the method: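 Double-addition potentiator screen: compound delivered in gluconate-substituted Cl^--free medium, membrane potential followed via CC2-DMPE/DiSBAC2(3) FRET on VIPR. Cells were ΔF508-CFTR-expressing NIH3T3 mouse fibroblasts, held 2 h at 37° C. then 24 h at 27° C. before assay.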

T1 sequence (P13569 with tags, fused parts or gaps DEL508-508): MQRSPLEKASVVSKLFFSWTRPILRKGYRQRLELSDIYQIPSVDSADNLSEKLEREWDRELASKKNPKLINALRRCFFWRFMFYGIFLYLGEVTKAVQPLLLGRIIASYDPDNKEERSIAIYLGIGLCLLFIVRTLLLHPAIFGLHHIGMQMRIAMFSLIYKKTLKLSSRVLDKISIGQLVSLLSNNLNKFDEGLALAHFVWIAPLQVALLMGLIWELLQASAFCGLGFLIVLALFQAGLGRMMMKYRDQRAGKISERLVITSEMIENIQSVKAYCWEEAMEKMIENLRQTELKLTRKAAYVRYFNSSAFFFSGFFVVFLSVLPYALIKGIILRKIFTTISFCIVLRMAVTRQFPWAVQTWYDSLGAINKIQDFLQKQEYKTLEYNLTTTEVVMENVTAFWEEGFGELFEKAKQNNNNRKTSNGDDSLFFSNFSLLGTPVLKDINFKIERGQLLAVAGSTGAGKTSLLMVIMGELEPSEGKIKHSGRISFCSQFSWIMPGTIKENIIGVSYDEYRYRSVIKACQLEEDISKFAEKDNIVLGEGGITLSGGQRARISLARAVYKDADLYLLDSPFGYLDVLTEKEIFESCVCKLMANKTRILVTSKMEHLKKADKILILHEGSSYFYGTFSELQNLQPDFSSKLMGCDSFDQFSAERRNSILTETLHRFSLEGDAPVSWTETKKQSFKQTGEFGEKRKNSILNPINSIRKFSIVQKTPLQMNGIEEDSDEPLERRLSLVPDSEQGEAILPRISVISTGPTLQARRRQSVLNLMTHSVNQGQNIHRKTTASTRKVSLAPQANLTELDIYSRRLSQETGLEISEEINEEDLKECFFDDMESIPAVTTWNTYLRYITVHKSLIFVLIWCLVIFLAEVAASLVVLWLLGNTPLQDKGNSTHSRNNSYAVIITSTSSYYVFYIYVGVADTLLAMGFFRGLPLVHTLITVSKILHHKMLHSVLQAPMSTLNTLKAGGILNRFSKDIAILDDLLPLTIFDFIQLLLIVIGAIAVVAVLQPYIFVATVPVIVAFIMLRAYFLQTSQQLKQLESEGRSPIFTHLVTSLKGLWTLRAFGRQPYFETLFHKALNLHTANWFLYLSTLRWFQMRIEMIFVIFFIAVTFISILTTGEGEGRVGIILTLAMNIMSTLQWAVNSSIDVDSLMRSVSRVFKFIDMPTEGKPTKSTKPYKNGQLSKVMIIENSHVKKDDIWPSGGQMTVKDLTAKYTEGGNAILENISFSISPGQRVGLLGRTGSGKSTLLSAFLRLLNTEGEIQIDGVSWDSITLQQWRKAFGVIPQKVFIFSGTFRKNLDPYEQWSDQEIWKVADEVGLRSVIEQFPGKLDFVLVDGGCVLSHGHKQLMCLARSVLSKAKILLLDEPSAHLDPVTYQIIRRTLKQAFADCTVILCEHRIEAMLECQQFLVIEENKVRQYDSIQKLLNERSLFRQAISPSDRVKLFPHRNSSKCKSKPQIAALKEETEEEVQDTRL

SMILES	EC50 [µM]	% Activity
COc1ccc2[nH]cc(C(=O)Nc3ccc(N4[C@H](C)CC[C@H]4C)cc3C(F)(F)F)c(=O)c2c1 [Compound 685, N-(4-((2R,5R)-2,5-dimethylpyrrolidin-1-yl)-2-(trifluoromethyl)phenyl)-6-methoxy-4-oxo-1,4-dihydroquinoline-3-carboxamide]	< 10	++ (between 25% to 100%)
O=C(Nc1ccc(N2CCCCC2)cc1C(F)(F)F)c1c[nH]c2ccccc2c1=O [Compound 686, 4-oxo-N-[4-(1-piperidyl)-2-(trifluoromethyl)phenyl]-1H-quinoline-3-carboxamide]	< 10	++ (between 25% to 100%)
CC(C)(C)c1cc(C(C)(C)C)c(NC(=O)c2c[nH]c3c(F)cccc3c2=O)cc1O [Compound 687, 8-fluoro-N-(5-hydroxy-2,4-ditert-butyl-phenyl)-4-oxo-1H-quinoline-3-carboxamide]	< 10	++ (between 25% to 100%)
Cc1ccc2[nH]cc(C(=O)Nc3cc(O)c(C(C)(C)C)cc3C(C)(C)C)c(=O)c2c1 [Compound 688, N-(5-hydroxy-2,4-ditert-butyl-phenyl)-6-methyl-4-oxo-1H-quinoline-3-carboxamide]	< 10	++ (between 25% to 100%)
O=C(Nc1ccc(N2CCC2)cc1C(F)(F)F)c1c[nH]c2ccccc2c1=O [Compound 689, N-[4-azetidin-1-yl-2-(trifluoromethyl)phenyl]-4-oxo-1H-quinoline-3-carboxamide]	< 10	++ (between 25% to 100%)
COC(=O)c1c(NC(=O)c2c[nH]c3ccccc3c2=O)csc1C(C)(C)C [Compound 690, methyl 4-[(4-oxo-1H-quinolin-3-yl)carbonylamino]-2-tert-butyl-thiophene-3-carboxylate]	< 10	++ (between 25% to 100%)
COc1cc(NC(=O)c2c[nH]c3ccccc3c2=O)cc(C(F)(F)F)c1 [Compound 691, N-[3-methoxy-5-(trifluoromethyl)phenyl]-4-oxo-1H-quinoline-3-carboxamide]	< 10	++ (between 25% to 100%)
O=C(Nc1ccccc1-c1ccccn1)c1c[nH]c2ccccc2c1=O [Compound 692, 4-oxo-N-[2-(2-pyridyl)phenyl]-1H-quinoline-3-carboxamide]	< 10	++ (between 25% to 100%)
O=C(Nc1ccc2cc(C(F)(F)F)[nH]c2c1)c1c[nH]c2cccc(O)c2c1=O [Compound 693, 5-hydroxy-4-oxo-N-[2-(trifluoromethyl)-1H-indol-6-yl]-1H-quinoline-3-carboxamide]	< 10	++ (between 25% to 100%)
CC(C)(C)c1cc(C(C)(C)C)c(NC(=O)c2c[nH]c3cc(OC(F)(F)F)ccc3c2=O)cc1O [Compound 694, N-(5-hydroxy-2,4-ditert-butyl-phenyl)-4-oxo-7-(trifluoromethoxy)-1H-quinoline-3-carboxamide]	< 10	++ (between 25% to 100%)
O=C(Nc1cc(O)c(Cl)cc1F)c1c[nH]c2ccccc2c1=O [Compound 695, N-(4-chloro-2-fluoro-5-hydroxy-phenyl)-4-oxo-1H-quinoline-3-carboxamide]	< 10	++ (between 25% to 100%)
O=C(Nc1ccc(OC(F)(F)F)c(N2CCCCC2)c1)c1c[nH]c2ccccc2c1=O [Compound 696, 4-oxo-N-[3-(1-piperidyl)-4-(trifluoromethoxy)phenyl]-1H-quinoline-3-carboxamide]	< 10	++ (between 25% to 100%)
Cc1cccc2[nH]cc(C(=O)Nc3ccc(N4CCC[C@H]4C)cc3C(F)(F)F)c(=O)c12 [Compound 697, (R)-5-methyl-N-(4-(2-methylpyrrolidin-1-yl)-2-(trifluoromethyl)phenyl)-4-oxo-1,4-dihydroquinoline-3-carboxamide]	< 10	++ (between 25% to 100%)
O=C(Nc1ccc(N2CCC[C@@H]2C(=O)O)cc1C(F)(F)F)c1c[nH]c2ccccc2c1=O [Compound 698, (R)-1-[4-[(4-oxo-1H-quinolin-3-yl)carbonylamino]-3-(trifluoromethyl)phenyl]pyrrolidine-2-carboxylic acid]	< 10	++ (between 25% to 100%)
O=C(Nc1ccc(C(F)(F)F)c(O)c1)c1c[nH]c2cccc(O)c2c1=O [Compound 700, 5-hydroxy-N-[3-hydroxy-4-(trifluoromethyl)phenyl]-4-oxo-1H-quinoline-3-carboxamide]	< 10	++ (between 25% to 100%)
Cc1cccc2[nH]cc(C(=O)Nc3ccc(OC(C)C)c(O)c3)c(=O)c12 [Compound 701, N-(3-hydroxy-4-isopropoxy-phenyl)-5-methyl-4-oxo-1H-quinoline-3-carboxamide]	< 10	++ (between 25% to 100%)

SMILES	EC50 [µM]	% Activity
CC(C)(C)c1cc(C(C)(C)C)c(NC(=O)c2c[nH]c3ccc(O)cc3c2=O)cc1O [Compound 702, 6-hydroxy-N-(5-hydroxy-2,4-ditert-butyl-phenyl)-4-oxo-1H-quinoline-3-carboxamide]	< 10	++ (between 25% to 100%)
Cc1ccc2c(=O)c(C(=O)Nc3cc4[nH]ccc4cc3C(C)(C)C)c[nH]c2c1 [Compound 704, 7-methyl-4-oxo-N-(5-tert-butyl-1H-indol-6-yl)-1H-quinoline-3-carboxamide]	< 10	++ (between 25% to 100%)
O=C(Nc1ccc(N2CC[C@@H](O)C2)cc1C(F)(F)F)c1c[nH]c2ccccc2c1=O [Compound 705, (R)-N-(4-(3-hydroxypyrrolidin-1-yl)-2-(trifluoromethyl)phenyl)-4-oxo-1,4-dihydroquinoline-3-carboxamide]	< 10	++ (between 25% to 100%)
CC1(c2cc(F)c(NC(=O)c3c[nH]c4cccc(C(F)(F)F)c4c3=O)cc2O)CCCCC1 [Compound 706, N-[2-fluoro-5-hydroxy-4-(1-methylcyclohexyl)-phenyl]-4-oxo-5-(trifluoromethyl)-1H-quinoline-3-carboxamide]	< 10	+++ (>100%)
CC(C)(C)c1ccc(NC(=O)c2c[nH]c3ccccc3c2=O)cc1N1CCCC1 [Compound 707, 4-oxo-N-(3-pyrrolidin-1-yl-4-tert-butyl-phenyl)-1H-quinoline-3-carboxamide]	< 10	++ (between 25% to 100%)
O=C(Nc1csc(C(F)(F)F)c1-c1ccccc1)c1c[nH]c2ccccc2c1=O [Compound 708, 4-oxo-N-[4-phenyl-5-(trifluoromethyl)-3-thienyl]-1H-quinoline-3-carboxamide]	< 10	++ (between 25% to 100%)
COc1cc2c(=O)c(C(=O)Nc3cc(O)c(C(C)(C)C)cc3C(C)(C)C)c[nH]c2cc1F [Compound 709, 7-fluoro-N-(5-hydroxy-2,4-ditert-butyl-phenyl)-6-methoxy-4-oxo-1H-quinoline-3-carboxamide]	< 10	+++ (>100%)
CN1CCC(C)(C)c2ccc(NC(=O)c3c[nH]c4ccccc4c3=O)cc21 [Compound 710, 4-oxo-N-(1,4,4-trimethyl-2,3-dihydroquinolin-7-yl)-1H-quinoline-3-carboxamide]	< 10	++ (between 25% to 100%)
O=C(Nc1cc(C(=O)O)c2cc[nH]c2c1)c1c[nH]c2ccccc2c1=O [Compound 711, 6-[(4-oxo-1H-quinolin-3-yl)carbonylamino]-1H-indole-4-carboxylic acid]	< 10	++ (between 25% to 100%)
C[C@H]1CCCCN1c1ccc(NC(=O)c2c[nH]c3ccccc3c2=O)c(C(F)(F)F)c1 [Compound 713, (S)-N-(4-(2-methylpiperidin-1-yl)-2-(trifluoromethyl)phenyl)-4-oxo-1,4-dihydroquinoline-3-carboxamide]	< 10	+++ (>100%)
C[C@H]1CCCN1c1ccc(NC(=O)c2c[nH]c3ccc(F)cc3c2=O)c(C(F)(F)F)c1 [Compound 714, (S)-6-fluoro-N-(4-(2-methylpyrrolidin-1-yl)-2-(trifluoromethyl)phenyl)-4-oxo-1,4-dihydroquinoline-3-carboxamide]	< 10	++ (between 25% to 100%)
COC(=O)[C@@H]1CCCCN1c1ccc(NC(=O)c2c[nH]c3ccccc3c2=O)c(C(F)(F)F)c1 [Compound 715, (S)-methyl 1-(4-(4-oxo-1,4-dihydroquinoline-3-carboxamido)-3-(trifluoromethyl)phenyl)piperidine-2-carboxylate]	< 10	++ (between 25% to 100%)
O=C(Nc1ccc(C(F)(F)F)c(O)c1)c1c[nH]c2c(Cl)cccc2c1=O [Compound 716, 8-chloro-N-[3-hydroxy-4-(trifluoromethyl)phenyl]-4-oxo-1H-quinoline-3-carboxamide]	< 10	++ (between 25% to 100%)
COc1cc(NC(=O)c2c[nH]c3ccccc3c2=O)cc2ccccc12 [Compound 717, N-(4-methoxy-2-naphthyl)-4-oxo-1H-quinoline-3-carboxamide]	< 10	++ (between 25% to 100%)
CC(C)(C)c1cc(C(C)(C)C)c(NC(=O)c2c[nH]c3c(F)ccc(F)c3c2=O)cc1O [Compound 718, 5,8-difluoro-N-(5-hydroxy-2,4-ditert-butyl-phenyl)-4-oxo-1H-quinoline-3-carboxamide]	< 10	++ (between 25% to 100%)
